According to patent US11339144B2 (Navitor Pharmaceuticals, Inc., priority 2017, dated 2022):
pIC50: −log10 of the molar value.

Experiments:
[1] = molecular target: HA-GST-Rheb (GTP-γ-S loaded) activating mTORC1 (Homo sapiens (Human), UniProt Q15382); test: Rheb-dependent in vitro kinase assay (Rheb-IVK; LanthaScreen or Western readout); assay type: biochemical; conditions: Rheb-dependent in vitro kinase assay; read-out: IVK IC50
[2] = molecular target: Rheb (Homo sapiens (Human), UniProt Q15382); test: Affinity Selection Mass Spectrometry (ASMS); assay type: binding; conditions: affinity (R3/R0) in Affinity Selection Mass Spectrometry assay
In short: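 Affinity selection used 2 μM compound with 60 μM Rheb and 180 μM GDP for 30 min at room temperature. After 10 kDa ultrafiltration washes, protein was denatured in MeCN and bound compound quantified by C18 UPLC with Q-TOF MS, against a no-protein control.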

Rheb, sequence (Q15382 1-169 limits assumed): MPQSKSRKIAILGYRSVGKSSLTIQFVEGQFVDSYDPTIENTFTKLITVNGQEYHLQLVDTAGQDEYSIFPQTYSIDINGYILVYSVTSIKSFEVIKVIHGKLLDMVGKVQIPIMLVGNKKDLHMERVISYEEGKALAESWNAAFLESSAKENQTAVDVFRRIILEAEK
HA-GST-Rheb (GTP-γ-S loaded) activating mTORC1, sequence (Q15382 1-181): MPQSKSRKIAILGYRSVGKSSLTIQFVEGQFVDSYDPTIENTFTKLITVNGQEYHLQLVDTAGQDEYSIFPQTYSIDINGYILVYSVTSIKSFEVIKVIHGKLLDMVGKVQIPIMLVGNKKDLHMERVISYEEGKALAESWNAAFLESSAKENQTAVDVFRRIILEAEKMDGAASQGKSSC

Structure (SMILES)	pIC50 [1]	ASMS (R3/R0) [2]
CN1CCC(CNC(=O)c2cc3c(Br)cc(Sc4ccc5ccccc5c4)cc3n2Cc2ccc(C(=O)N(C)C)cc2)CC1 [I-23]	< 4.00	B (an affinity (R3/R0) between 100% and 20%)
O=C1CCc2ccc(Oc3cc(Cl)cc4[nH]c(CO)cc34)cc2N1 [I-59]	< 4.00	C (an affinity (R3/R0)<20%)
Clc1cc2nc(-c3ccc(-c4nn[nH]n4)cc3)[nH]c2cc1Cl [I-344]	< 4.00	A (an affinity (R3/R0)>100%)
CC(C)(C)OC(=O)c1ccc(Cn2ccc3c(Br)cc(Oc4ccccc4)cc32)cc1 [I-163]	< 4.00	C (an affinity (R3/R0)<20%)
Clc1cc2nc(-c3ccnc(-c4ccccc4)c3)[nH]c2cc1Cl [I-368]	< 4.00	B (an affinity (R3/R0) between 100% and 20%)
Cc1nc2c(OCc3ccc(Cl)cc3)c(Cl)c(Cl)cc2[nH]1 [I-340]	< 4.00	B (an affinity (R3/R0) between 100% and 20%)
OCc1nc2c(OCC3CCCC3O)c(Cl)c(Cl)cc2[nH]1 (centres unmarked) [I-379, 2-((5,6-dichloro-2-(hydroxymethyl)-1H-benzo[d]imidazol-4-yloxy)methyl)cyclopentanol]	< 4.00	C (an affinity (R3/R0)<20%)
O=C(O)c1cc2c(Sc3ccc(Cl)cc3Cl)cc(Cl)cc2n1Cc1ccc(Br)cc1 [I-103]	< 4.00	B (an affinity (R3/R0) between 100% and 20%)
CN1CCN(C(=O)c2ccc(Cn3c(C(=O)O)cc4c(Br)cc(Oc5ccccc5)cc43)cc2)CC1 [I-68]	< 5.52	C (an affinity (R3/R0)<20%)
OCc1nc2cc(OCc3ccccc3)c(Cl)cc2n1Cc1ccc(-c2nnn[nH]2)cc1 [I-437, (1-(4-(1H-tetrazol-5-yl)benzyl)-5-(benzyloxy)-6-chloro-1H-benzo[d]imidazol-2-yl)methanol]	< 5.52	C (an affinity (R3/R0)<20%)
OCc1nc2c(OC[C@H]3CNCC[C@H]3O)c(Cl)c(Cl)cc2[nH]1 (racemic) [I-386]	< 4.00	C (an affinity (R3/R0)<20%)
O=C(NCCn1ccc2ccccc21)c1cc2c(Sc3ccc(Cl)cc3)cc(Cl)cc2[nH]1 [I-131]	< 4.00	B (an affinity (R3/R0) between 100% and 20%)
OCc1nc2c(OCc3ccccc3)cc(Cl)cc2[nH]1 [I-493]	< 4.00	C (an affinity (R3/R0)<20%)
OCc1cc2c(Oc3cccc(Cl)c3)cc(Cl)cc2[nH]1 [I-215, (6-chloro-4-(3-chlorophenoxy)-1H-indol-2-yl)methanol]	4.00 to 5.00	B (an affinity (R3/R0) between 100% and 20%)
CN(C)C(=O)c1ccc(Cn2c(CN)cc3c(Br)cc(Sc4ccc(Cl)c(Cl)c4)cc32)cc1 [I-37]	< 4.00	C (an affinity (R3/R0)<20%)
Clc1ccccc1Sc1cccc2[nH]ccc12 [I-244, 4-(2-chlorophenylthio)-1H-indole]	4.00 to 5.00	B (an affinity (R3/R0) between 100% and 20%)
CN(C)C(=O)c1ccc(Cn2c(C(=O)O)cc3c(Br)nc(Sc4ccc(Cl)c(Cl)c4)cc32)cc1 [I-3, 4-bromo-6-(3,4-dichlorophenylthio)-1-(4-(dimethylcarbamoyl)benzyl)-1H-pyrrolo[3,2-c]pyridine-2-carboxylic acid]	4.00 to 5.00	B (an affinity (R3/R0) between 100% and 20%)
CN(C)C(=O)c1cccc(Cn2c(C(=O)O)cc3c(Br)cc(Oc4ccccc4)cc32)c1 [I-40, 4-bromo-1-(3-(dimethylcarbamoyl)benzyl)-6-phenoxy-1H-indole-2-carboxylic acid]	4.00 to 5.00	C (an affinity (R3/R0)<20%)
CC(C)(C)OC(=O)NCc1nc2cc(OCc3ccc(Cl)cc3)c(Cl)c(Cl)c2[nH]1 [I-350]	< 4.00	B (an affinity (R3/R0) between 100% and 20%)
Fc1cccc(Oc2cccc3[nH]ccc23)c1 [I-282, 4-(3-fluorophenoxy)-1H-indole]	3.52 to 4.00	C (an affinity (R3/R0)<20%)
CN(C)C(=O)c1ccc(Cn2c(C(=O)O)cc3c(Br)cc(SC4CCCCC4)cc32)cc1 [I-11]	< 5.52	B (an affinity (R3/R0) between 100% and 20%)
C[Si](C)(C)CC(O)c1cc2c(Oc3ccccc3)cc(Cl)cc2[nH]1 (centres unmarked) [I-159, 1-(6-chloro-4-phenoxy-1H-indol-2-yl)-2-(trimethylsilyl)ethanol]	4.00 to 5.00	C (an affinity (R3/R0)<20%)

Continued, in another order:

pIC50 [1]	Structure (SMILES)	ASMS (R3/R0) [2]
> 5.00	CN1CCCN(c2ccc(NC(=O)c3cc4c(Sc5ccc(Cl)cc5Cl)cc(Cl)cc4[nH]3)cc2F)CC1 [I-93, 6-chloro-4-(2,4-dichlorophenylthio)-N-(3-fluoro-4-(4-methyl-1,4-diazepan-1-yl)phenyl)-1H-indole-2-carboxamide]	A (an affinity (R3/R0)>100%)
4.00 to 5.00	O=C(O)c1cc2c(OCc3ccc(Cl)cc3)cc(Cl)c(Cl)c2[nH]1 [I-60, 6,7-dichloro-4-(4-chlorobenzyloxy)-1H-indole-2-carboxylic acid]	B (an affinity (R3/R0) between 100% and 20%)
> 5.00	O=C(O)c1cc2c(Sc3ccc(Oc4ccc(Cl)cc4)cc3)cc(Cl)cc2[nH]1 [I-84, 6-chloro-4-(4-(4-chlorophenoxy)phenylthio)-1H-indole-2-carboxylic acid]	B (an affinity (R3/R0) between 100% and 20%)
4.00 to 5.00	OCc1cc2c(Oc3ccc(Cl)cc3)cccc2[nH]1 [I-263, (4-(4-chlorophenoxy)-1H-indol-2-yl)methanol]	C (an affinity (R3/R0)<20%)
4.00 to 5.00	Clc1ccc(Sc2cc(Cl)cc3[nH]c(-c4ccnc5[nH]ccc45)nc23)cc1 [I-326, 6-chloro-4-(4-chlorophenylthio)-2-(1H-pyrrolo[2,3-b]pyridin-4-yl)-1H-benzo[d]imidazole]	B (an affinity (R3/R0) between 100% and 20%)
4.00 to 5.00	O=C(O)c1cc2c(Sc3ccc(F)cc3)cc(Cl)cc2[nH]1 [I-156, 6-chloro-4-(4-fluorophenylthio)-1H-indole-2-carboxylic acid]	B (an affinity (R3/R0) between 100% and 20%)
4.00 to 5.00	OCc1nc2cc(Cl)c(OCc3ccccc3)cc2n1Cc1ccc(-c2nnn[nH]2)cc1 [I-440, (1-(4-(1H-tetrazol-5-yl)benzyl)-6-(benzyloxy)-5-chloro-1H-benzo[d]imidazol-2-yl)methanol]	C (an affinity (R3/R0)<20%)
4.00 to 5.00	CC(C)(O)CNC(=O)c1ccc(Cn2c(C(=O)O)cc3c(Br)cc(Oc4ccccc4)cc32)cc1 [I-55, 4-bromo-1-(4-(2-hydroxy-2-methylpropylcarbamoyl)benzyl)-6-phenoxy-1H-indole-2-carboxylic acid]	C (an affinity (R3/R0)<20%)
> 5.00	OCc1cc2c(Sc3ccc(Oc4ccccc4)cc3)cc(Cl)cc2[nH]1 [I-116, (6-chloro-4-(4-phenoxyphenylthio)-1H-indol-2-yl)methanol]	B (an affinity (R3/R0) between 100% and 20%)
4.00 to 5.00	OCc1nc2cc(OCc3ccc(Oc4ccccc4)cc3)c(Cl)c(Cl)c2[nH]1 [I-320, [6,7-dichloro-5-[(4-phenoxyphenyl)methoxy]-1H-benzimidazol-2-yl]methanol]	B (an affinity (R3/R0) between 100% and 20%)
4.00 to 5.00	O=C(O)c1cc2c(Sc3ccc(Cl)cc3)cc(Cl)cc2[nH]1 [I-190, 6-chloro-4-(4-chlorophenylthio)-1H-indole-2-carboxylic acid]	B (an affinity (R3/R0) between 100% and 20%)
> 5.00	CN(C)C(=O)c1ccc(Cn2c(C(=O)O)cc3c(C#N)cc(Sc4ccc(Cl)c(Cl)c4)cc32)cc1 [I-7, 4-cyano-6-(3,4-dichlorophenylthio)-1-(4-(dimethylcarbamoyl)benzyl)-1H-indole-2-carboxylic acid]	B (an affinity (R3/R0) between 100% and 20%)
> 5.00	CN(C)C(=O)c1ccc(Cn2c(C(=O)O)cc3c(Cl)cc(Sc4ccc(Cl)c(Cl)c4)cc32)cc1 [I-75, 4-chloro-6-(3,4-dichlorophenylthio)-1-(4-(dimethylcarbamoyl)benzyl)-1H-indole-2-carboxylic acid]	B (an affinity (R3/R0) between 100% and 20%)
4.00 to 5.00	O=C(O)c1cc2c(Cl)cc(Oc3ccccc3)cc2n1Cc1c[nH]cn1 [I-173, 1-((1H-imidazol-4-yl)methyl)-4-chloro-6-phenoxy-1H-indole-2-carboxylic acid]	C (an affinity (R3/R0)<20%)
4.00 to 5.00	Clc1ccc(Sc2cc(Cl)cc3[nH]ccc23)cc1 [I-180, 6-chloro-4-(4-chlorophenylthio)-1H-indole]	B (an affinity (R3/R0) between 100% and 20%)
> 5.00	CN1CC(NC(=O)c2cc3c(Sc4ccc(Cl)cc4)cc(Cl)cc3[nH]2)C1 [I-71, 6-chloro-4-(4-chlorophenylthio)-N-(1-methylazetidin-3-yl)-1H-indole-2-carboxamide]	B (an affinity (R3/R0) between 100% and 20%)
> 5.00	O=C(O)c1cc2c(Br)cc(Sc3ccc(Cl)c(Cl)c3)cc2n1Cc1ccc(C(=O)N(CCO)CCO)cc1 [I-50, 1-(4-(bis(2-hydroxyethyl)carbamoyl)benzyl)-4-bromo-6-(3,4-dichlorophenylthio)-1H-indole-2-carboxylic acid]	B (an affinity (R3/R0) between 100% and 20%)
> 5.00	CN1CCN(c2ccc(NC(=O)c3cc4c(Sc5ccc(Cl)cc5Cl)cc(Cl)cc4[nH]3)cc2Cl)CC1 [I-111, 6-chloro-N-(3-chloro-4-(4-methylpiperazin-1-yl)phenyl)-4-(2,4-dichlorophenylthio)-1H-indole-2-carboxamide]	C (an affinity (R3/R0)<20%)
